Measurements: US9765035B2 (priority 2013, dated 2017)
pIC50: −log10 of the molar value.

Molecular target: T1, Human CARM1 (PRMT4) (Homo sapiens, UniProt Q86X55)
T1 construct: Flag-CARM1-His; made in house; host or cells: HEK 293F cells (BacMam baculovirus)
T1 sequence (Q86X55 1-585 isoform Q86X55-1): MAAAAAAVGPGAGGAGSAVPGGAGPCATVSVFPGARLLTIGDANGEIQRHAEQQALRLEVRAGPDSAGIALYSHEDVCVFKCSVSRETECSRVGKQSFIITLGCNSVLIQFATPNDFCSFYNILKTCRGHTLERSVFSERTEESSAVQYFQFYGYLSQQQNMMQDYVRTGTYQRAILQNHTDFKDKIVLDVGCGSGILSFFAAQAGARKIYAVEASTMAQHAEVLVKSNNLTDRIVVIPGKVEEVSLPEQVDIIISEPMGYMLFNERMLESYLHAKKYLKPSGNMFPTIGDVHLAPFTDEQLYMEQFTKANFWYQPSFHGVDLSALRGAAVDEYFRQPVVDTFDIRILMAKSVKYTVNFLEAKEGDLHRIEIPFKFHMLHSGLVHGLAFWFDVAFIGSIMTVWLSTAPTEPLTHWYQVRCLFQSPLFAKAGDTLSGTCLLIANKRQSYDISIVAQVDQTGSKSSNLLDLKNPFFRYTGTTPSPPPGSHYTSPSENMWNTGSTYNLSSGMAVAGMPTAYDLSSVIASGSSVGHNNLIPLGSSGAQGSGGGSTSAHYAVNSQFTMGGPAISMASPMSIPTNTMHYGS
Assay: CARM1 Biochemical Assay
Text: General Materials. S-adenosylmethionine (SAM), S-adenosylhomocysteine (SAH), bicine, Tween20, dimethylsulfoxide (DMSO), bovine skin gelatin (BSG), sodium butyrate and Tris(2-carboxyethyl)phosphine hydrochloride solution (TCEP) were purchased from Sigma-Aldrich at the highest level of purity possible. ^3H-SAM was purchase from American Radiolabeled Chemicals with a specific activity of 80 Ci/mmol. 384-well streptavidin Flashplates were purchased from PerkinElmer.
Substrates. Peptide representative of human histone H3 residues 16-30 was synthesized with an N-terminal linker-affinity tag motif and a C-terminal amide cap by 21st Century Biochemicals. The peptide was purified by high-performance liquid chromatography (HPLC) to greater than 95% purity and confirmed by liquid chromatography mass spectrometry (LC-MS). The sequence was Biot-Ahx-[…]-amide and contained a monomethylated arginine at position 26 (SEQ ID NO.: 14).
Molecular Biology: Human CARM1 (PRMT4) (NM_199141.1) transcript clone was amplified from an HEK 293 cDNA library, incorporating a flanking 5′ sequence encoding a FLAG tag ([…]) (SEQ ID NO.:6) fused directly to Ala 2 of CARM1 and 3′ sequence encoding a hexa His sequence ([…]) (SEQ ID NO.: 15) fused directly to Ser 608. The gene sequence encoding isoform1 containing a deletion of amino acids 539-561 was amplified subsequently and subcloned into pFastBacMam (Viva Biotech).
Protein Expression. Recombinant baculovirus were generated according to Bac-to-Bac kit instructions (Life Technologies). […] Infections were carried out at 37° C. for 48 hours, harvested by centrifugation, and stored at −80° C. for purification.
Protein Purification. […] Column was washed with 500 mM NaCl in buffer A and Flag-CARM1-His was eluted with 200 ug/ml FLAG peptide in buffer A. Pooled fractions were dialyzed in 20 mM Tris, 150 mM NaCl, 5% glycerol and 1 mM DTT, pH 7.8. The purity of recovered protein was 94.
General Procedure for CARM1 Enzyme Assays on Peptide Substrates. The assays were all performed in a buffer consisting of 20 mM Bicine (pH=7.6), 1 mM TCEP, 0.005% BSG, and 0.002% Tween 20, prepared on the day of use. Compounds in 100% DMSO (1 ul) were spotted into a polypropylene 384-well V-bottom plates (Greiner) using a Platemate Plus outfitted with a 384-channel head (Thermo Scientific). DMSO (1 ul) was added to Columns 11, 12, 23, 24, rows A-H for the maximum signal control and 1 ul of SAH, a known product and inhibitor of CARM1, was added to columns 11, 12, 23, 24, rows I-P for the minimum signal control. A cocktail (40 ul) containing the CARM1 enzyme was added by Multidrop Combi (Thermo-Fisher). The compounds were allowed to incubate with CARM1 for 30 min at room temperature, then a cocktail (10 ul) containing ^3H-SAM and peptide was added to initiate the reaction (final volume=51 ul). The final concentrations of the components were as follows: CARM1 was 0.25 nM, ^3H-SAM was 30 nM, peptide was 250 nM, SAH in the minimum signal control wells was 1 mM, and the DMSO concentration was 2%. The assays were stopped by the addition of non-radiolabeled SAM (10 ul) to a final concentration of 300 uM, which dilutes the ^3H-SAM to a level where its incorporation into the peptide substrate is no longer detectable. 50 ul of the reaction in the 384-well polypropylene plate was then transferred to a 384-well Flashplate and the biotinylated peptides were allowed to bind to the streptavidin surface for at least 1 hour before being washed once with 0.1% Tween20 in a Biotek EL×405 plate washer. The plates were then read in a PerkinElmer TopCount plate reader to measure the quantity of ^3H-labeled peptide bound to the Flashplate surface, measured as disintegrations per minute (dpm) or alternatively, referred to as counts per minute (cpm).
Where dpm=disintegrations per minute, cmpd=signal in assay well, and min and max are the respective minimum and maximum signal controls. […]

[1] = PRMT4 IC50, biochemical evaluation, CARM1 (PRMT4), peptide substrate
[2] = PRMT4 biochemical evaluation (numerical), single experiment or average of multiple experiments

Row | SMILES | pIC50 [1] | pIC50 [2]
1 | CNCCN(C)Cc1n[nH]c2cccc(OCCCC(O)CO)c12 (centres unmarked) [Compound 41, 5-((3-((methyl(2-(methylamino)ethyl)amino)methyl)-1H-indazol-4-yl)oxy)pentane-1,2-diol] | 5.52 to 6.00 | 6.62
2 | CNCCN(C)Cc1n[nH]c2ccc(OCC3CCN(C(C)=O)CC3)cc12 [Compound 51] | 5.00 to 5.52 | < 5.00
3 | CNCCN(C)Cc1n[nH]c2ccc(Oc3ccccc3C)cc12 [Compound 60] | 6.00 to 7.00 | 5.75
4 | CNCCN(C)Cc1n[nH]c2ccc(Oc3ccccc3C(F)(F)F)cc12 [Compound 49] | 5.00 to 5.52 | 6.22
5 | CNCCN(C)Cc1n[nH]c2ccc(N3CCC4(CCCCC4)CC3)cc12 [Compound 43, N^1-((5-(3-azaspiro[5.5]undecan-3-yl)-1H-indazol-3-yl)methyl)-N^1,N^2-dimethylethane-1,2-diamine] | 6.00 to 7.00 | 5.75
6 | CNCCN(C)Cc1nn(C2CCN(C(C)=O)CC2)c2ccc(OCc3ccc(C#N)cc3)cc12 [Compound 38] | 5.52 to 6.00 | < 5.00
7 | CNCCN(C)Cc1n[nH]c2ccc(Oc3cccc(Cl)c3)cc12 [Compound 27, N^1-((5-(3-chlorophenoxy)-1H-indazol-3-yl)methyl)-N^1,N^2-dimethylethane-1,2-diamine] | 6.00 to 7.00 | 6.41
8 | CNCCN(C)Cc1n[nH]c2ccc(OCC3CCCC3)cc12 [Compound 52] | 5.00 to 5.52 | < 5.00
9 | CNCCN(C)Cc1n[nH]c2ccc(OC3CCOC3)cc12 (centres unmarked) [Compound 25, N^1,N^2-dimethyl-N^1-((5-((tetrahydrofuran-3-yl)oxy)-1H-indazol-3-yl)methyl)ethane-1,2-diamine] | 6.00 to 7.00 | 6.03
10 | CNCCN(C)Cc1n[nH]c2cccc(OCCC(O)CO)c12 (centres unmarked) [Compound 40] | 5.00 to 5.52 | 5.68
